The record followed here is patent publication US12528761B2, “Thyromimetics” (Autobahn Therapeutics, Inc., priority 2020, dated 2026).

Experiment [1] concerns the target T1, recombinant human FAAH (rhFAAH) (Homo sapiens, UniProt O00519).
T1 construct: purchased Cayman Chemical (Ann Arbor, MI, USA)
T1 sequence (O00519 1-579): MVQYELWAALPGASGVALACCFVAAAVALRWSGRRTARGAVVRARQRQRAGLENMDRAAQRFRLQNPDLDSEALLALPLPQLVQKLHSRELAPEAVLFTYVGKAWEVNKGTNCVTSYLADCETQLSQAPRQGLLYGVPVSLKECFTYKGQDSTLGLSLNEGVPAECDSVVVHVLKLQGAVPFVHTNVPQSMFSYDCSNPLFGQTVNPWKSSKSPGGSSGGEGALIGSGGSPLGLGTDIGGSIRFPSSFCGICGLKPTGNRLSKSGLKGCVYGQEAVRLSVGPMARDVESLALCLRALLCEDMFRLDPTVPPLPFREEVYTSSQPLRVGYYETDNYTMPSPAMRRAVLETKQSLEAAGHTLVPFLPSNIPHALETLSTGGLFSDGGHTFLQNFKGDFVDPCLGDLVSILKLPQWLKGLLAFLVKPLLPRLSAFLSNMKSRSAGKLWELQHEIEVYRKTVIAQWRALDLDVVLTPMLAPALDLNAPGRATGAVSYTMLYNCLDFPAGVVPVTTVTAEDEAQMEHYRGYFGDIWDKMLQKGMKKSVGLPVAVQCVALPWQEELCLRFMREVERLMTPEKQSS
Nature of the experiment: FAAH substrate evaluation (formation of acid metabolite, LC-MS/MS). Details: key: A: ke is equal to or less than 1.0; B: ke is greater than 1.0 and less than or equal to 2.5; C: ke is greater than 2.5; NC: no conversion. It counts as biochemical. The note with it: 0.5 ng/μL rhFAAH, 1 μM test compound, pH 8.0, room temperature, 0-60 minutes. As to the method: Purified recombinant human FAAH (rhFAAH) was purchased from Cayman Chemical (Ann Arbor, MI, USA). The total volume for each incubation was 400 μL containing a final 0.5 ng/μL rhFAAH, 1 μM test compound, 1.25% ethanol or 1 μM PF-3845 (FAAH inhibitor), and 0.1% bovine serum albumin in Tris-EDTA buffer at pH 8.0). The positive control was LL-341001. The incubation was conducted at the room temperature. At 0, 5, 15, 30 and 60 minutes, an aliquot of 30 μL reaction mixtures was removed and mixed with 300 μL acetonitrile containing 5 ng/mL terfenadine and 10 ng/mL tolbutamide as internal standards to quench the reaction. The resulting mixture was centrifuged at 4000 rpm, 4° C. for 15 minutes, and 100 μL supernatant was ready for LC-MS/MS analysis to measure the formation of acid metabolite.
Acquity Ultra Performance LC system from Waters was used for sample analysis. The chromatography was performed on a reverse phase Kinetex 2.6 μm C18 column, 2.1×30 mm, 100 Å. The mobile phase A comprised of 0.1% formic acid in water and mobile phase B comprised of 0.1% formic acid in acetonitrile with a 2-min run time at the flow rate of 0.8 mL/min for the acid metabolite from positive control or a 1.5 min run time at the flow rate of 0.9 mL/min for the acid metabolite of test compounds. The mass spectrometer (API-5500 and API Q Trap 4000 Applied Biosystems/MDS SCIEX Instruments, Framingham, MA, USA) was operated under ESI positive or negative ion MRM mode.
The formation of acid metabolite was monitored and quantified using one calibration point of 1 μM. The observed rate constant (ke) for the acid metabolite formation was calculated by plotting the metabolite concentration versus time of incubation with the slope being ke and is shown in Table 4.

In experiment [2] the target is T2, TRα (Homo sapiens, UniProt P10827).
T2 construct: expressed in transfected cells; host or cells: HEK293
T2 sequence (P10827 1-410 isoform P10827-2): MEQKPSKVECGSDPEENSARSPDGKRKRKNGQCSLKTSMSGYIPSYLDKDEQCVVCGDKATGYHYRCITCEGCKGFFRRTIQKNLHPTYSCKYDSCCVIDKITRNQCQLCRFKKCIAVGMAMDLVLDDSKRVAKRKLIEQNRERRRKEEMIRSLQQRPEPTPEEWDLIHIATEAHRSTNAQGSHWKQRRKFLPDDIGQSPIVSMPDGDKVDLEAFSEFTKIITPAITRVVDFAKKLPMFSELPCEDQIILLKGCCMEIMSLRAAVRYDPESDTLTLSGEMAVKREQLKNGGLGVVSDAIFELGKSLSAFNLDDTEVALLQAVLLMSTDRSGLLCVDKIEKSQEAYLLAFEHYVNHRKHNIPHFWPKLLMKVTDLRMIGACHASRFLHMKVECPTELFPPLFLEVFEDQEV
Nature of the experiment: TR reporter-gene assay (Gal4 DBD hybrid, luciferase), TRα. The note with it: HEK293-derived reporter cells, 24 hr treatment; read-out: TRα EC50. It is filed as cell-based. In short, it runs like this: (§1)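 HEK293 reporter cells expressing Gal4-DBD/TR ligand-binding hybrids driving firefly luciferase from a Gal4 UAS; cells pre-incubated 6 h, then treated 24 h at 37 °C in medium with 10% charcoal-stripped FBS (final DMSO 0.1–0.4%), in duplicate. Read-out was luminescence (RLU).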

The target in experiment [3] is T3, TRβ (Homo sapiens, UniProt P10828).
T3 construct: expressed in transfected cells; host or cells: HEK293
T3 sequence (P10828 217-461 limits assumed): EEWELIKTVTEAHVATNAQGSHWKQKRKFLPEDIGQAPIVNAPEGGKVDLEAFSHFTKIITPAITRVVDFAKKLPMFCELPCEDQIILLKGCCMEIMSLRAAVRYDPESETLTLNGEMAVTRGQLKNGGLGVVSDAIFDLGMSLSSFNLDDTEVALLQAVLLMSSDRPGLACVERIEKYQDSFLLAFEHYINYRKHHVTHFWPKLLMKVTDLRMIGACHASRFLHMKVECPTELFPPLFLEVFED
In words: TR reporter-gene assay (Gal4 DBD hybrid, luciferase), TRβ. It is filed as cell-based. The note with it: for pEC50: HEK293-derived reporter cells, 24 hr treatment, read-out: TRβ EC50; for T3-SI (selectivity index, EC50 (TRα)/EC50 (TRβ)): class symbols. The essentials:
as §1

pEC50: −log10 of the molar value.

With `CNC(=O)Cc1cc(Cl)c(Cc2ccc(O)c(C(C)C)c2)c(Cl)c1` [Compound 7, 2-(3,5-dichloro-4-(4-hydroxy-3-isopropylbenzyl)phenyl)-N-methylacetamide], the “ke, observed rate constant for the acid metabolite formation” value (“ke, observed rate constant” for short) in experiment [1] was “NC”.

For `CNC(=O)CCc1cc(Cl)c(Cc2ccc(O)c(C(C)C)c2)c(Cl)c1` [Compound 12, 3-(3,5-dichloro-4-(4-hydroxy-3-isopropylbenzyl)phenyl)-N-methylpropanamide], the “ke, observed rate constant” value in experiment [1] is “A (ke is equal to or less than 1.0)”.

Consider `CNC(=O)Cc1cc(Cl)c(Cc2ccc(O)c(C(C)C)c2F)c(Cl)c1` [Compound 33, 2-(3,5-dichloro-4-(2-fluoro-4-hydroxy-3-isopropylbenzyl)phenyl)-N-methylacetamide], for which the “ke, observed rate constant” value in experiment [1] is listed as “NC”.

In the case of `CC(C)c1c(O)ccc(Cc2c(Cl)cc(CC(=O)N(C)C)cc2Cl)c1F` [Compound 34, 2-(3,5-dichloro-4-(2-fluoro-4-hydroxy-3-isopropylbenzyl)phenyl)-N,N-dimethylacetamide], in experiment [1], the “ke, observed rate constant” value is given as “NC”.

Turning to `CNC(=O)CCc1cc(Cl)c(Cc2ccc(O)c(C(C)C)c2F)c(Cl)c1` [Compound 41, 3-(3,5-dichloro-4-(2-fluoro-4-hydroxy-3-isopropylbenzyl)phenyl)-N-methylpropanamide], the “ke, observed rate constant” value in experiment [1] is given as “A (ke is equal to or less than 1.0)”.

As to `CNC(=O)CNc1cc(Cl)c(Cc2ccc(O)c(C(C)C)c2F)c(Cl)c1` [Compound 47, 2-((3,5-dichloro-4-(2-fluoro-4-hydroxy-3-isopropylbenzyl)phenyl)amino)-N-methylacetamide], the “ke, observed rate constant” value in experiment [1] is on record as “A (ke is equal to or less than 1.0)”.

For `CNC(=O)CCc1cc(Cl)c(Cc2ccc(O)c(C(C)C)c2)c(Cl)c1F` [Compound 66, 3-(3,5-dichloro-2-fluoro-4-(4-hydroxy-3-isopropylbenzyl)phenyl)-N-methylpropanamide], the “ke, observed rate constant” value in experiment [1] is listed as “A (ke is equal to or less than 1.0)”.

Consider `CNC(=O)CCc1cc(Cl)c(Cc2ccc(O)c(C(C)C)c2F)c(Cl)c1F` [Compound 72, 3-(3,5-dichloro-2-fluoro-4-(2-fluoro-4-hydroxy-3-isopropylbenzyl)phenyl)-N-methylpropanamide], for which, in experiment [1], the “ke, observed rate constant” value is listed as “A (ke is equal to or less than 1.0)”.

As to `Cc1cc(SCC(=O)O)c(F)c(Cl)c1Cc1ccc(O)c(C(C)C)c1` [Compound 225, 2-((3-chloro-2-fluoro-4-(4-hydroxy-3-isopropylbenzyl)-5-methylphenyl)thio)acetic acid], the negative-log EC50 (pEC50) in experiment [2] was 6.00 to 7.00. Further, in experiment [3], the pEC50 is 6.00 to 7.00 and the “T3-SI (selectivity index, EC50 (TRα)/EC50 (TRβ))” value was “++ (3× < T3-SI ≤ 30×)”.

Consider `Cc1c(F)c(CSCC(=O)O)cc(Cl)c1Cc1ccc(O)c(C(C)C)c1` [Compound 226, 2-((5-chloro-2-fluoro-4-(4-hydroxy-3-isopropylbenzyl)-3-methylbenzyl)thio)acetic acid], for which the negative-log EC50 (pEC50) in experiment [2] was 6.00 to 7.00. Besides, in experiment [3], the pEC50 was 6.00 to 7.00 and the “T3-SI (selectivity index, EC50 (TRα)/EC50 (TRβ))” value was “++ (3× < T3-SI ≤ 30×)”.

Regarding `Cc1c(F)c(SCC(=O)O)cc(Cl)c1Cc1ccc(O)c(C(C)C)c1` [Compound 227, 2-((5-chloro-2-fluoro-4-(4-hydroxy-3-isopropylbenzyl)-3-methylphenyl)thio)acetic acid], the pEC50 in experiment [2] and in experiment [3] was 6.00 to 7.00 in each case. The “T3-SI (selectivity index, EC50 (TRα)/EC50 (TRβ))” value in experiment [3] was “++ (3× < T3-SI ≤ 30×)”.

For `Cc1cc([S+]([O-])CC(=O)O)cc(Cl)c1Cc1ccc(O)c(C(C)C)c1` (centres unmarked) [Compound 244, 2-((3-chloro-4-(4-hydroxy-3-isopropylbenzyl)-5-methylphenyl)sulfinyl)acetic acid], the pEC50 in experiment [2] was < 6.00. Besides, in experiment [3], the pEC50 was < 6.00 and the “T3-SI (selectivity index, EC50 (TRα)/EC50 (TRβ))” value is “++ (3× < T3-SI ≤ 30×)”.

On to `Cc1cc(CS(=O)(=O)CC(=O)O)cc(Cl)c1Cc1ccc(O)c(C(C)C)c1` [Compound 245, 2-((3-chloro-4-(4-hydroxy-3-isopropylbenzyl)-5-methylbenzyl)sulfonyl)acetic acid], for which, in experiment [2], the pEC50 is < 6.00. Further, in experiment [3], the negative-log EC50 (pEC50) is < 6.00 and the “T3-SI (selectivity index, EC50 (TRα)/EC50 (TRβ))” value was “++ (3× < T3-SI ≤ 30×)”.

Take `Cc1cc(C[S+]([O-])CC(=O)O)cc(Cl)c1Cc1ccc(O)c(C(C)C)c1` (centres unmarked) [Compound 246, 2-((3-chloro-4-(4-hydroxy-3-isopropylbenzyl)-5-methylbenzyl)sulfinyl)acetic acid]: the negative logarithm of the EC50 (pEC50) in experiment [2] and in experiment [3] was < 6.00 in each case. Further, in experiment [3], the “T3-SI (selectivity index, EC50 (TRα)/EC50 (TRβ))” value is “++ (3× < T3-SI ≤ 30×)”.

Turning to `Cc1cc(NCC(=O)O)cc(Cl)c1Cc1ccc(O)c(C(C)C)c1F` [Compound 247, (3-chloro-4-(2-fluoro-4-hydroxy-3-isopropylbenzyl)-5-methylphenyl)glycine], the negative logarithm of the EC50 (pEC50) in experiment [2] and in experiment [3] was 7.00 to 8.00 throughout. In addition, in experiment [3], the “T3-SI (selectivity index, EC50 (TRα)/EC50 (TRβ))” value is “++ (3× < T3-SI ≤ 30×)”.

With `C/C(=C\c1cc(C)c(Cc2ccc(O)c(C(C)C)c2F)c(Cl)c1)C(=O)O` [Compound 248, (E)-3-(3-chloro-4-(2-fluoro-4-hydroxy-3-isopropylbenzyl)-5-methylphenyl)-2-methylacrylic acid], the pEC50 in experiment [2] was 7.00 to 8.00. In experiment [3], the pEC50 was 7.00 to 8.00 and the “T3-SI (selectivity index, EC50 (TRα)/EC50 (TRβ))” value was “+ (T3-SI ≤ 3×)”.

`Cc1cc(CCC(=O)O)cc(Cl)c1Cc1ccc(O)c(C(C)C)c1F` [Compound 249, 3-(3-chloro-4-(2-fluoro-4-hydroxy-3-isopropylbenzyl)-5-methylphenyl)propanoic acid]: the negative-log EC50 (pEC50) in experiment [2] is 7.00 to 8.00. Moreover, in experiment [3], the pEC50 is 7.00 to 8.00 and the “T3-SI (selectivity index, EC50 (TRα)/EC50 (TRβ))” value was “++ (3× < T3-SI ≤ 30×)”.

Regarding `Cc1cc(/C=C/C(=O)O)cc(Cl)c1Cc1ccc(O)c(C(C)C)c1F` [Compound 250, (E)-3-(3-chloro-4-(2-fluoro-4-hydroxy-3-isopropylbenzyl)-5-methylphenyl)acrylic acid], the negative-log EC50 (pEC50) in experiment [2] is 7.00 to 8.00. In experiment [3], the pEC50 was 7.00 to 8.00 and the “T3-SI (selectivity index, EC50 (TRα)/EC50 (TRβ))” value was “+ (T3-SI ≤ 3×)”.

Turning to `Cc1cc(CNCC(=O)O)cc(Cl)c1Cc1ccc(O)c(C(C)C)c1` [Compound 251, (3-chloro-4-(4-hydroxy-3-isopropylbenzyl)-5-methylbenzyl)glycine], in experiment [2], the negative logarithm of the EC50 (pEC50) is 6.00 to 7.00. For the same compound, in experiment [3], the negative logarithm of the EC50 (pEC50) was < 6.00 and the “T3-SI (selectivity index, EC50 (TRα)/EC50 (TRβ))” value is “+ (T3-SI ≤ 3×)”.

What is called pEC50 is the negative decadic logarithm of the EC50, by convention in mol/L.
